According to patent publication US4283329A, “Pharmacologically active peptides” (Eli Lilly and Company, priority 1979, dated 1981):
Where a SMILES comes first, the peptide text is derived from it. [ ]: non-standard residue; d: D form. Phe(4-F) = N[C@@H](Cc1ccc(F)cc1)C(=O)O; NMeM = CN[C@@H](CCSC)C(=O)O

System: mouse
Assay: mouse hot plate test (analgesic activity)
Format: in vivo
Conditions: subcutaneous, hot plate 52° C., 15 minutes after administration, latency until jump
Method: In this test, a mouse is placed inside on upright acrylic cylinder comprising, as its base, a hot plate surface which is maintained at 52° C. The mouse is given, orally or by subcutaneous injection, a predetermined amount of test compound dissolved or suspended in a suitable carrier, and, 15 minutes after administration of the test compound, the mouse is placed on the hot plate surface. The latency in seconds until the mouse jumps from the hot plate surface is measured. […] This must occur in a dose range which produces no motor incoordination or incapacitation. The following Table records the ED50 results obtained from this test.

Which “Analgesic Activity, Hot Plate Test, ED50” value does the source give for `CSCC[C@@H](C(N)=O)N(C)C(=O)[C@H](Cc1ccc(F)cc1)NC(=O)CNC(=O)[C@@H](C)NC(=O)[C@@H](N)Cc1ccc(O)cc1` [Example 1, L-Tyrosyl-D-alanyl glycyl-L-p-fluorophenylalanyl-L-(N^α -methyl)methionin amide] here?
The value was 0.023 mg/kg.

With `COc1ccc([C@H](NC(=O)[C@H](Cc2ccc(F)cc2)NC(=O)CNC(=O)[C@@H](C)NC(=O)[C@@H](N)Cc2ccc(O)cc2)C(N)=O)cc1` [Example 2, L-Tyrosyl-D-alanyl-glycyl-L-p-fluorophenylalanyl-L-p-methoxyphenylglycinamide] as the molecule, how does the “Analgesic Activity, Hot Plate Test, ED50” value read?
Its value is 1.04 mg/kg.

With `C[C@@H](NC(=O)[C@@H](N)Cc1ccc(O)cc1)C(=O)NCC(=O)N[C@@H](Cc1ccc(F)cc1)C(=O)N[C@@H](C(N)=O)c1ccccc1` [Example 3 D-Pgl, L-Tyrosyl-D-alanyl-glycyl-L-p-fluorophenylalanyl-D-phenylglycinamide] as the molecule, how does the “Analgesic Activity, Hot Plate Test, ED50” value read?
The value was 0.103 mg/kg.

With `C[C@@H](NC(=O)[C@@H](N)Cc1ccc(O)cc1)C(=O)NCC(=O)N[C@@H](Cc1ccc(F)cc1)C(=O)N[C@H](C(N)=O)c1ccccc1` [Example 3 L-Pgl, L-Tyrosyl-D-alanyl-glycyl-L-p-fluorophenylalanyl-L-phenylglycinamide] as the molecule, how does the “Analgesic Activity, Hot Plate Test, ED50” value read?
Its value is 0.063 mg/kg.

Which “Analgesic Activity, Hot Plate Test, ED50” value does the source give for `CSCC[C@@H](C(N)=O)N(C)C(=O)[C@H](Cc1ccc(F)cc1)NC(=O)CNC(=O)[C@H](NC(=O)[C@@H](N)Cc1ccc(O)cc1)[C@H](C)O` [Example 4, L-Tyrosyl-D-threonylglycyl-L-p-fluorophenylalanyl-L-(N^α -methyl)methioninamide] (H-Y[dT]G[Phe(4-F)][NMeM]-NH2) here?
The value was 0.088 mg/kg.

System: not given
Assay: not given
Conditions: administered parenterally; cited from earlier work

With “H-Tyr-Gly-Gly-Phe-Leu-OH [leucine enkephalin]” as the molecule, how does the analgesic activity read?
Its analgesic activity is “practically devoid of any useful analgesic activity”.

With “H-Tyr-Gly-Gly-Phe-Met-OH [methionine enkephalin]” as the molecule, how does the analgesic activity read?
Its analgesic activity is “practically devoid of any useful analgesic activity”.
